How the values were obtained:
[1] = clinical studies; cited from earlier work
[2] = Noninvasive total blood hemoglobin in immoderate iron deficient subjects before and after 2 weeks of iron chelate; format: in vivo, human; settings: immoderate iron deficient subjects 2-7 years of age, baseline average 10.03 g/dL, 1 mL (15 mg) daily, Masimo rainbow SET SpHb
Method: To examine this, the inventors have recruited a population (2-7 years of age) of immoderate iron deficient subjects having an average hemoglobin level of 10.03 g/dL. Total blood hemoglobin levels were measured noninvasively at baseline (time 0) and following treatment (after 2 weeks) from the index finger of subjects using Masimo rainbow SET SpHb technology. Subjects were instructed to take 1 mL of iron bis-glycinate chelate (15 mg) daily.

SMILES | hemoglobin and ferritin indices compared with ferrous sulfate or ferrous ascorbate [1] | average total blood hemoglobin level following treatment ([2]; after two weeks) [g/dL] | increase of total blood hemoglobin level, on average ([2]; two weeks, index finger) [%]
NCC(=O)[O-].NCC(=O)[O-].[Fe+2] [Ferrochel, ferrous bis glycinate] | improved hemoglobin and ferritin indices at lower dosages than ferrous sulfate or ferrous ascorbate |  | 
NCC(=O)[O-].NCC(=O)[O-].[Fe+2] [iron bis-glycinate chelate] |  | 11.13 | 11

— US20210393678A1, “PERSONALIZED FOOD PRODUCTS FOR ENSURING ADEQUATE IRON INTAKE” (MY-OR D[…]., priority 2018, published 2021)
